Source: article PMC5554137, “Evaluation of novel factor Xa inhibitors from Oxya chinensis sinuosa with anti-platelet aggregation activity” (Scientific Reports, 2017)

Columns and labels:
[1] = target: Urokinase (Homo sapiens, UniProt P00749); test: Chromogenic substrate assay, Ki determination, Urokinase; type: biochemical; settings: for Ki: substrate S-2444
Method: (§1) The inhibitor (I) constants (Ki) were determined for the inhibition of a series of human enzymes (FXa, thrombin, trypsin, plasmin, protein Ca, streptokinase, tPA, and urokinase) by each compound. Chromogenic substrate assays were performed using a Labsystems IEMS (Cergy Pontoise, France) microtiter plate reader. In each assay, the compound was tested at a minimum of seven concentrations in duplicate to obtain an inhibition curve. Assays were performed according to the following general procedure. In a 96-well microtiter plate, 25 μL of compound, inhibitor solution or buffer was added to 50 μL of substrate. A volume of 25 μL of enzyme solution was added just before the plate was placed in the microtiter plate reader for 1 h at 37 °C. The hydrolysis of the substrate yields p-nitroaniline, which was continuously monitored spectrophotometrically at 405 nm. Data were collected and the initial rate of substrate hydrolysis [Vo (mOD/minute)] was calculated. Following Michaelis-Menten kinetics, the affinity of the enzyme for the substrate, in the absence of the inhibitor (Km) and in the presence of an inhibitor (Kp), was determined to be the negative inverse x-intercept of Lineweaver–Burk plots. The dissociation constant for inhibition (Ki) was calculated using the following equation: Ki = (Km·[I])/(Kp − Km) as described by Williams and Morrison[40].

[2] = tested on: Streptokinase (Homo sapiens); test: Chromogenic substrate assay, Ki determination, Streptokinase; type: biochemical; settings: for Ki: substrate S-2251
Sequence of Streptokinase (Homo sapiens) (P00747 581-810 limits assumed): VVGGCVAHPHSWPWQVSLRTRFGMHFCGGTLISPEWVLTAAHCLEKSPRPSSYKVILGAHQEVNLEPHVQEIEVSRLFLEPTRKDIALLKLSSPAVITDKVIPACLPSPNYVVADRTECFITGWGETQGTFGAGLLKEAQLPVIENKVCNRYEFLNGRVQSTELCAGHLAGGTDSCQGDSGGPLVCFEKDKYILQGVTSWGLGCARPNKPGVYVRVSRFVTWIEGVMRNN
Method: as §1

[3] = target: T1, α-Thrombin (Homo sapiens, UniProt P00734); test: Chromogenic substrate assay, Ki determination, α-Thrombin; type: biochemical; settings: for Ki: substrate S-2238
T1 construct: FXa converts prothrombin to thrombin; purchased Haematologic Technologies (Essex Junction, VT, USA)
Method: as §1

[4] = target: T2, FXa (Homo sapiens, UniProt P00742); test: Chromogenic substrate assay, Ki determination, Factor Xa; type: biochemical; settings: for Ki: substrate S-2765 (Table 3), mean ± SD (n = 5)
T2 construct: purchased Haematologic Technologies (Essex Junction, VT, USA)
T2 sequence (P00742 235-488 limits assumed): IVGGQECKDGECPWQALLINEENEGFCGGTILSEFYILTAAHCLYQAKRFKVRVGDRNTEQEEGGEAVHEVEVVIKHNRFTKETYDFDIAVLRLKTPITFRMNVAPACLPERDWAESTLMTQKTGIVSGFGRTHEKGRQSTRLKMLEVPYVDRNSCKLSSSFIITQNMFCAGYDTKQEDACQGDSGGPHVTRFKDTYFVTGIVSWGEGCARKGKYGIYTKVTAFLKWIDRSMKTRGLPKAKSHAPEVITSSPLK
T2 sequence (P00742 41-179 limits assumed): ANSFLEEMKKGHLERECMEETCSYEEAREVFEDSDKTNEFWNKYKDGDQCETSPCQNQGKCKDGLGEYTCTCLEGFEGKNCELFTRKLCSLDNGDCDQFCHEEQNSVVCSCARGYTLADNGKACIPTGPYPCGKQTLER
Method: as §1

[5] = target: tPA (Homo sapiens, UniProt P00750); test: Chromogenic substrate assay, Ki determination, tPA; type: biochemical; settings: for Ki: substrate S-2228
Sequence of tPA (P00750 36-562): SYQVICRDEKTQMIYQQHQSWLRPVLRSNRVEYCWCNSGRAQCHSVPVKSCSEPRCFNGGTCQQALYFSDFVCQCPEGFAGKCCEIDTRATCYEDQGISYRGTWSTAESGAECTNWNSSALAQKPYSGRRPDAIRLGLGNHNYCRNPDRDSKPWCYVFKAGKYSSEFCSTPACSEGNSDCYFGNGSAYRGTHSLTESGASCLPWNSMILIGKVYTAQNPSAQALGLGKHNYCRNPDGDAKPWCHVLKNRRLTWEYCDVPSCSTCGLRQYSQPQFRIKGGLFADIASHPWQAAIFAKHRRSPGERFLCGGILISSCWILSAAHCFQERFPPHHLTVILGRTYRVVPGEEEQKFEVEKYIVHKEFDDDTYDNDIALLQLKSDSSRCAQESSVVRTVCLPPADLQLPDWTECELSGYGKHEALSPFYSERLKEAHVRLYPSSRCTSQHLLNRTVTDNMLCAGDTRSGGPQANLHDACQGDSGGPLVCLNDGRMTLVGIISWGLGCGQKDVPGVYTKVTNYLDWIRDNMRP
Method: as §1

[6] = target: Plasmin (Homo sapiens, UniProt P00747); test: Chromogenic substrate assay, Ki determination, Plasmin; type: biochemical; settings: for Ki: substrate S-2251
Sequence of Plasmin (P00747 581-810 limits assumed): as the sequence (P00747 581-810 limits assumed) above
Sequence of Plasmin (P00747 97-580 limits assumed): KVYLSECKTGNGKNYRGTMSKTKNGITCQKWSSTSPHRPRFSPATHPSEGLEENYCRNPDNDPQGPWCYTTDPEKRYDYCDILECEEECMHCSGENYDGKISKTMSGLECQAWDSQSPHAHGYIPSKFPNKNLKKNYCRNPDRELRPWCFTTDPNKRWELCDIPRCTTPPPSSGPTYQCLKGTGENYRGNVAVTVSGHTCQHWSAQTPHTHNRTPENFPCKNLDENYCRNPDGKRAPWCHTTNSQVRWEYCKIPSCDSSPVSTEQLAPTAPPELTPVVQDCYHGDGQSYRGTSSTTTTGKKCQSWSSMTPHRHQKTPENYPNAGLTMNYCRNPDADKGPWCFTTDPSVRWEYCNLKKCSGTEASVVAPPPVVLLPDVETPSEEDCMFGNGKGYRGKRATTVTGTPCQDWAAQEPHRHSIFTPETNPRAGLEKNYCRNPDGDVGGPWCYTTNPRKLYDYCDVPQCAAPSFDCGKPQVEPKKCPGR
Method: as §1

[7] = target: T2, FXa; test: Inhibition of amidolytic activity of FXa toward S-2222 (Michaelis-Menten, Lineweaver-Burk; with or without TFPI); type: biochemical; settings: for type of inhibition of FXa (Lineweaver-Burk plots) / slope of inhibition activity plot: S-2222; for slope of inhibition activity plot: FXa; for Ki: substrate S-2222
Method: To elucidate the mechanisms responsible for inhibition of coagulation and platelet aggregation by compounds 1–4, inhibition of FXa activity was determined using chromogenic substrates. […] We observed a decrease in Vmax, with no effect on the Km of FXa toward S-2222 in the presence of compound 1. […] We also observed a slope of 0.401 for the control without compound 2, and slopes of 0.442 and 0.465 for compound 2 at concentrations of 2 and 5 µM, respectively. […] We observed a decrease in Vmax, with no effect on the Km of FXa toward S-2222 in the presence of compound 2. […] Inhibition activity plots were obtained for different concentrations of compound 3, showing a slope of 0.388 for the control without compound 3, and slopes of 0.408 and 0.464 for compound 3 at concentrations of 2 and 5 µM, respectively. […] We also observed a slope of 0.363 for the control without compound 4, and slopes of 0.376 and 0.398 for compound 4 at concentrations of 2 and 5 µM, respectively. […] We observed a decrease in Vmax, with no effect on the Km of FXa toward S-2222 in the presence of compound 4.
Figure 6 Effects of compounds 1–4 on inhibition and production of FXa. […] The plots represent means of three independent measurements. (E) Human umbilical vein endothelial cells (HUVECs) were pre-incubated with the indicated concentration of each compound for 10 min. HUVECs stimulated with tumor necrosis factor-α (TNF-α, 10 ng/mL for 6 h) were incubated with FVIIa (10 nM) and FX (175 nM) in the absence or presence of anti-TF IgG (25 µg/mL). FXa production was determined as described in the “ Supplementary Materials and Methods” section. D = 0.2% DMSO used as the vehicle control. (F) Inhibition of FXa by each compound (5 μM) with or without TFPI (2 nM) was monitored using a chromogenic assay. ^* p < 0.05 vs. TNF-α alone (E) or each compound (F) alone, analyzed via one-way ANOVA, followed by Tukey multiple comparison testing.
Each compound with or without TFPI was dissolved in 50 mM Tris-HCl buffer (pH 7.4) containing 7.5 mM EDTA and 150 mM NaCl. Following a 2-min incubation at 37 °C, FXa solution (150 μL, 1 U/mL) was added, followed by incubation at 37 °C for 1 min. S-2222 (an FXa substrate, 150 μL, 1.5 mM) solution was subsequently added, and the absorbance at 405 nm was monitored for 20 min using a spectrophotometer (TECAN, Männedorf, Switzerland). The absorbance-time curve and the slope of the curve (Vi) were used to represent the activity of the enzyme. Distilled water served as a control (the slope of curve V0). The inhibitory effect was calculated according to equation (1):1 Inhibitoryrate(%)=(V0−Vi)/V0×100 where V0 represents the slope of the vehicle and Vi represents the slope of the samples.

[8] = tested on: Trypsin; test: Chromogenic substrate assay, Ki determination, Trypsin; type: biochemical, human; settings: for Ki: substrate S-2222
Method: as §1

[9] = target: Protein Ca (Homo sapiens, UniProt P04070); test: Chromogenic substrate assay, Ki determination, Protein Ca; type: biochemical; settings: for Ki: substrate S-2366
Sequence of Protein Ca (P04070 212-461 limits assumed): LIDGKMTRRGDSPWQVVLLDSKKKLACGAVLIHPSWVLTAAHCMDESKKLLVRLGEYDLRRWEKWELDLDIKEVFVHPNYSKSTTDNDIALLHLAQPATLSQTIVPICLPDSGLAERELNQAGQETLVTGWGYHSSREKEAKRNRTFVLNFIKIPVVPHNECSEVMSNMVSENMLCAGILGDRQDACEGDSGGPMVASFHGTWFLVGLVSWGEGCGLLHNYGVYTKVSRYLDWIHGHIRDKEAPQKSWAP
Sequence of Protein Ca (P04070 43-197 limits assumed): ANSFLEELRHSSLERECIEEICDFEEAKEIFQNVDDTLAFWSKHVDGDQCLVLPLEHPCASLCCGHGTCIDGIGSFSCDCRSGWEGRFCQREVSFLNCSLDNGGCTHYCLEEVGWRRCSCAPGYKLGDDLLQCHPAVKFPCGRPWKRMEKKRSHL
Method: as §1

[10] = tested on: C57BL/6 mice; test: Tail bleeding time; type: in vivo; settings: tail-cutting assay, mean ± SD, n = 10
Method: Figure 4 Effects of compounds 1–4 on clotting and bleeding time. (A) One hour after administration (intravenous injection) of compound 1 (white box), 2 (light gray box), 3 (dark gray box), or 4 (black box), blood was collected from the mice and platelet-poor plasma (PPP) was obtained by centrifugation at 2,000 × g for 10 min at room temperature to test ex vivo activated partial thromboplastin time (aPTT). (B) Each group received a daily intravenous injection of the indicated compound for four consecutive days. Fifteen minutes after the last administration, blood samples were collected and in vivo aPTT was measured. (C) Fifteen minutes after administration of each compound or aspirin (4.5 or 9 mg/kg for 30 min) or the vehicle, tail tips (3 mm long) were cut from each mouse, and the remaining tail was immediately immersed into saline at 37 °C. Accumulated bleeding times (including periods of re-bleeding) were recorded. D = 0.2% DMSO used as the vehicle control. Data are presented as means ± SD of three independent experiments. *p < 0.05 vs. vehicle alone, analyzed by one-way ANOVA, followed by Tukey multiple comparison testing.
To assess bleeding risk incurred by compounds 1–4, we measured bleeding time in mice treated with each compound (up to 30 µM/mouse) by using a tail-cutting assay; the concentration used was three-fold higher than the doses used for the in vivo anti-thrombotic studies. Aspirin-treated mice (9 mg/kg) served as positive controls. […] However, the bleeding time in mice treated with compounds 1–4 was shorter than that observed in mice treated with aspirin ([…], mean ± SD, n = 10). The dose required to avoid thrombus formation and to protect against paralysis or death in mice was determined to be 5 µM per mouse (Fig. 7C).
Tail bleeding times were measured using the method described by Dejana et al.[37]. Briefly, C57BL/6 mice were fasted overnight prior to the experiments. […] after the i.v. administration of each compound, the tails of the mice were transected […] from their tips. Bleeding time was defined as the time elapsed until bleeding stopped. Bleeding times that exceeding 15 min were recorded as 15 min.

Compound	Ratio = Ki enzyme/Ki Factor Xa, Urokinase [1]	Ki [1] [µM]	Ratio = Ki enzyme/Ki Factor Xa, Streptokinase [2]	Ki [2] [µM]	Ratio = Ki enzyme/Ki Factor Xa, α-Thrombin [3]	Ki [3] [µM]	Ratio = Ki enzyme/Ki Factor Xa, Factor Xa [4]	Ki [4] [µM]	Ratio = Ki enzyme/Ki Factor Xa, tPA [5]	Ki [5] [µM]	Ratio = Ki enzyme/Ki Factor Xa, Plasmin [6]	Ki [6] [µM]	Km of FXa toward S-2222 in the presence of compound [7]	Vmax of FXa toward S-2222 in the presence of compound [7]	type of inhibition of FXa (Lineweaver-Burk plots) [7]	slope of inhibition activity plot ([7]; compound at 2 µM)	slope of inhibition activity plot ([7]; compound at 5 µM)	Ki [7] [µM]	Ratio = Ki enzyme/Ki Factor Xa, Trypsin [8]	Ki [8] [µM]	also measured
CC(=O)NCCc1ccc2c(c1)O[C@@H](NC(C)=O)[C@@H](c1ccc(O)c(O)c1)O2 [Compound 2, (2 R,3 R)-2-(3′,4′-dihydroxyphenyl)-3-acetylamino-6-(N-acetyl-2″-aminoethyl)-1,4-benzodioxane]	>100	> 500	>100	> 500	>100	> 500	1	4.13 ± 0.43	>100	> 500	>100	> 500	no effect	decrease	noncompetitive inhibition	0.442	0.465	4.13	>100	> 500	Ratio = Ki enzyme/Ki Factor Xa, Protein Ca [9]: >100; Ki [9]: > 500 µM; bleeding time ([10]; mice treated with 10 µM): 12.5 ± 1.2 min; bleeding time ([10]; mice treated with 30 µM): 13.5 ± 1.1 min
CC(=O)NCCc1ccc2c(c1)O[C@H](NC(C)=O)[C@@H](c1ccc(O)c(O)c1)O2 [Compound 3, (2 R,3 S)-2-(3′,4′-dihydroxyphenyl)-3-acetylamino-6-(N-acetyl-2″-aminoethyl)-1,4-benzodioxane]	>100	> 500	>100	> 500	>100	> 500	1	4.45 ± 0.37	>100	> 500	>100	> 500	no effect	decrease	noncompetitive inhibition	0.408	0.464	4.45	>100	> 500	Ratio = Ki enzyme/Ki Factor Xa, Protein Ca [9]: >100; Ki [9]: > 500 µM; bleeding time ([10]; mice treated with 10 µM): 12.1 ± 1.1 min; bleeding time ([10]; mice treated with 30 µM): 12.3 ± 1.3 min
CC(=O)NCCc1ccc2c(c1)O[C@H](c1ccc(O)c(O)c1)[C@@H](NC(C)=O)O2 [Compound 4, (2 R,3 S)-2-(3′,4′-dihydroxyphenyl)-3-acetylamino-7-(N-acetyl-2″-aminoethyl)-1,4-benzodioxane]	>100	> 500	>100	> 500	>100	> 500	1	4.72 ± 0.31	>100	> 500	>100	> 500	no effect	decrease	noncompetitive inhibition	0.376	0.398	4.72	>100	> 500	Ratio = Ki enzyme/Ki Factor Xa, Protein Ca [9]: >100; Ki [9]: > 500 µM
